Test results published in ChEMBL document CHEMBL4043204, “meso-Dihydroguaiaretic acid derivatives with antibacterial and antimycobacterial activity” (Bioorg Med Chem, 2017).
Values after ≈ are worked out from the molar mass of the structure shown. Active and inactive are the calls of the source. No cut-off for these calls is given here.

Legend:
[1] = system: Stenotrophomonas maltophilia; experiment: Antibacterial activity against trimethoprim-sulfamethoxazole-resistant Stenotrophomonas maltophilia assessed as inhibition of microbial growth up to 50 ug/ml incubated for 24 hrs by microdilution assay; type: functional
Escherichia coli [2] = experiment: Antibacterial activity against oxacillin-resistant Escherichia coli OXA-48 assessed as inhibition of microbial growth up to 50 ug/ml incubated for 24 hrs by microdilution assay; type: functional
Pseudomonas aeruginosa = experiment: Antibacterial activity against carbapenem-resistant Pseudomonas aeruginosa (13-1391) assessed as inhibition of microbial growth up to 50 ug/ml incubated for 48 hrs by microdilution assay; type: functional
Providencia rettgeri = experiment: Antibacterial activity against NDM-1 positive Providencia rettgeri assessed as inhibition of microbial growth up to 50 ug/ml incubated for 24 hrs by microdilution assay; type: functional
Acinetobacter baumannii = experiment: Antibacterial activity against carbapenem-resistant Acinetobacter baumannii (12-666) assessed as inhibition of microbial growth up to 50 ug/ml incubated for 24 hrs by microdilution assay; type: functional
Klebsiella pneumoniae [3] = experiment: Antibacterial activity against NDM-1 positive Klebsiella pneumoniae (14-3335) assessed as inhibition of microbial growth up to 50 ug/ml incubated for 24 hrs by microdilution assay; type: functional
Escherichia coli [4] = experiment: Antibacterial activity against extended-spectrum beta-lactamase-positive Escherichia coli (14-2081) assessed as inhibition of microbial growth up to 50 ug/ml incubated for 24 hrs by microdilution assay; type: functional
[5] = Selectivity index, ratio of IC50 for cytotoxicity against African green monkey Vero cells to MIC for Mycobacterium tuberculosis H37Rv ATCC 27294; type: toxicity, cell-based; settings: read-out: Selectivity Index
[6] = system: Mycobacterium tuberculosis; experiment: Antimycobacterial activity against Mycobacterium tuberculosis H37Rv ATCC 27294 assessed as inhibition of mycobacterial growth incubated for 2 weeks by MABA method; type: functional; settings: for MIC: Mycobacterium tuberculosis, H37Rv ATCC 27294, 336 h
Vero = experiment: Cytotoxicity against African green monkey Vero cells assessed as reduction in cell viability incubated for 24 hrs by trypan blue staining based assay; settings: Chlorocebus sabaeus
Klebsiella pneumoniae [7] = experiment: Antibacterial activity against extended-spectrum beta-lactamase-positive Klebsiella pneumoniae (14-2081) assessed as inhibition of microbial growth up to 50 ug/ml incubated for 24 hrs by microdilution assay; type: functional
[8] = system: Mycobacterium tuberculosis; experiment: Antimycobacterial activity against Mycobacterium tuberculosis H37Rv ATCC 27294 assessed as inhibition of mycobacterial growth up to 50 ug/ml incubated for 2 weeks by MABA method; type: functional

SMILES | Activity [1] | Activity (Escherichia coli [2]) | Activity (Pseudomonas aeruginosa) | Activity (Providencia rettgeri) | Activity (Acinetobacter baumannii) | Activity (Klebsiella pneumoniae [3]) | Activity (Escherichia coli [4]) | selectivity ratio [5] | -logMIC [6] | MIC [6] [µg/mL] | IC50 (Vero) [µg/mL] | Activity (Klebsiella pneumoniae [7]) | growth inhibition (GI) [8]
COc1cc(C[C@@H](C)[C@@H](C)Cc2ccc(OC(C)=O)c(OC)c2)ccc1OC(C)=O | inactive | inactive | inactive | inactive | inactive | inactive | inactive | 1.9 | 4.23 | 50 (≈ 121 µM) | 95.1 (≈ 230 µM) | inactive | 
COc1cc(C[C@@H](C)[C@@H](C)Cc2ccc(OC(=O)c3ccccc3[N+](=O)[O-])c(OC)c2)ccc1OC(=O)c1ccccc1[N+](=O)[O-] | inactive | inactive | inactive | inactive | inactive | inactive | inactive |  | 4.03 |  |  | inactive | inactive
CCCCCCCC/C=C\CCCCCCCC(=O)Oc1ccc(C[C@@H](C)[C@@H](C)Cc2ccc(OC(=O)CCCCCCC/C=C\CCCCCCCC)c(OC)c2)cc1OC | inactive | inactive | inactive | inactive | inactive | inactive | inactive |  | 4.88 |  |  | inactive | inactive
COc1cc(C[C@@H](C)[C@@H](C)Cc2ccc(OC(=O)c3ccccn3)c(OC)c2)ccc1OC(=O)c1ccccn1 | inactive | inactive | inactive | inactive | inactive | inactive | inactive |  | 3.92 |  |  | inactive | inactive
COc1cc(C[C@@H](C)[C@@H](C)Cc2ccc(OCCN3CCCC3)c(OC)c2)ccc1OCCN1CCCC1 | inactive | inactive | inactive | inactive | inactive | inactive | inactive | > 19.5 |  | 25 (≈ 47.6 µM) | > 487 | inactive | 
CCCC(=O)Oc1ccc(C[C@@H](C)[C@@H](C)Cc2ccc(OC(=O)CCC)c(OC)c2)cc1OC | inactive | inactive | inactive | inactive | inactive | inactive | inactive |  | 4.04 |  |  | inactive | inactive
CCCCCCCCCCCCCCCC(=O)Oc1ccc(C[C@@H](C)[C@@H](C)Cc2ccc(OC(=O)CCCCCCCCCCCCCCC)c(OC)c2)cc1OC | inactive | inactive | inactive | inactive | inactive | inactive | inactive |  | 4.02 |  |  | inactive | inactive
COc1cc(C[C@@H](C)[C@@H](C)Cc2ccc(OC(=O)c3cccnc3)c(OC)c2)ccc1OC(=O)c1cccnc1 | inactive | inactive | inactive | inactive | inactive | inactive | inactive | 2.9 | 4.2 | 12.5 (≈ 23.1 µM) | 36.3 (≈ 67.1 µM) | inactive | 
COc1cc(C[C@@H](C)[C@@H](C)Cc2ccc(OCCN(C)C)c(OC)c2)ccc1OCCN(C)C | inactive | inactive | inactive | inactive | inactive | inactive | inactive | > 77.9 | 4.32 | 6.25 (≈ 13.2 µM) | > 487 | inactive | 
CCCCCCCCCCCCCCCCCC(=O)Oc1ccc(C[C@@H](C)[C@@H](C)Cc2ccc(OC(=O)CCCCCCCCCCCCCCCCC)c(OC)c2)cc1OC | inactive | inactive | inactive | inactive | inactive | inactive | inactive |  | 3.85 |  |  | inactive | inactive
CCN(CC)CCOc1ccc(C[C@@H](C)[C@@H](C)Cc2ccc(OCCN(CC)CC)c(OC)c2)cc1OC | inactive | inactive | inactive | inactive | inactive | inactive | inactive | 1.45 | 4.55 | 25 (≈ 47.3 µM) | 36.2 (≈ 68.5 µM) | inactive | 
COc1cc(C[C@@H](C)[C@@H](C)Cc2ccc(OC(=O)c3cnccn3)c(OC)c2)ccc1OC(=O)c1cnccn1 | inactive | inactive | inactive | inactive | inactive | inactive | inactive |  | 4.23 | 50 (≈ 92.2 µM) |  | inactive | 
COc1cc(C[C@@H](C)[C@@H](C)Cc2ccc(OC(=O)c3ccc(Br)cc3)c(OC)c2)ccc1O (racemic) | inactive | inactive | inactive | inactive | inactive | inactive | inactive | 8.93 | 4.58 | 12.5 (≈ 24.3 µM) | 112 (≈ 217 µM) | inactive | 
COc1cc(C[C@@H](C)[C@@H](C)Cc2ccc(OC(=O)c3ccccc3[N+](=O)[O-])c(OC)c2)ccc1O (racemic) | inactive | inactive | inactive | inactive | inactive | inactive | inactive | 7.76 | 3.94 | 12.5 (≈ 26.1 µM) | 97.1 (≈ 202 µM) | inactive | 
COc1cc(C[C@@H](C)[C@@H](C)Cc2ccc(OC(=O)c3ccccc3)c(OC)c2)ccc1O (racemic) | inactive | inactive | inactive | inactive | inactive | inactive | inactive | 9.97 | 4.61 | 12.5 (≈ 28.8 µM) | 125 (≈ 287 µM) | inactive | 
COc1cc(C[C@@H](C)[C@@H](C)Cc2ccc(OCCN3CCCC3)c(OC)c2)ccc1O (racemic) | inactive | inactive | inactive | inactive | inactive | inactive | inactive | > 39 | 5.25 | 12.5 (≈ 29.2 µM) | > 487 | inactive | 
COc1cc(C[C@@H](C)[C@@H](C)Cc2ccc(OC(=O)c3cccnc3)c(OC)c2)ccc1O (racemic) | inactive | inactive | inactive | inactive | inactive | inactive | inactive | 1.43 | 4.05 | 50 (≈ 115 µM) | 71.4 (≈ 164 µM) | inactive | 
COc1cc(C[C@@H](C)[C@@H](C)Cc2ccc(OCCN(C)C)c(OC)c2)ccc1O (racemic) | inactive | inactive | inactive | inactive | inactive | inactive | inactive | 26.1 | 4.53 | 12.5 (≈ 31.1 µM) | 327 (≈ 813 µM) | inactive | 
COc1cc(C[C@@H](C)[C@@H](C)Cc2ccc(OCCN3CCOCC3)c(OC)c2)ccc1O (racemic) | inactive | inactive | inactive | inactive | inactive | inactive | inactive |  |  |  |  | inactive | inactive
CC[C@@H](CO)NCCN[C@@H](CC)CO [ETHAMBUTOL] |  |  |  |  |  |  |  | 125 |  | 3.12 (≈ 15.3 µM) | 391 (≈ 1910 µM) |  | 
